# US11135252B2, “Probiotic therapies for developmental disorders and other neurological disorders” (Baylor College of Medicine, priority 2016, dated 2021)
# Tested on: oxytocin immunoreactivity in the PVN
# Assay: Oxytocin immunofluorescence in the PVN of MHFD offspring
# Format: in vivo, mice
# Conditions: for oxytocin-positive cell number in the PVN: relative to heat-killed L. reuteri / control treatment
# Method: Lactobacillus reuteri MM4-1A (ATCC-PTA-6475) and Lactobacillus johnsonii (ATCC 33200) were cultured anaerobically in MRS broth in a 90% N2, 5% CO2, 5% H2 environment. L. reuteri was heat-killed by keeping the bacteria at 80° C. for 20 minutes (Wang et al., 2010). Bacterial viability was assessed by plating and the efficacy of the heat-kill procedure was confirmed by the absence of colony growth following plating. Cultures were centrifuged, washed, and resuspended in anaerobic solution (PBS) and frozen at −80° C. until use. PBS, live or heat-killed L. reuteri were added to the drinking water, which was changed daily to minimize dosage variability. Whereas the experimental group received live bacteria, one control group received identically prepared cultures of heat-killed bacteria. A second group of control mice received water treated with PBS alone. Live and heat-killed L. reuteri were supplied at a dosage of 1×10^8 organisms/mouse/day continuously in drinking water. Mice consumed the treated water ad libitum over the treatment period. The treated drinking water for each group was replaced daily two hours prior to the onset of the dark cycle to minimize variation in microbial exposure. Behavioral assays were initiated after 4-weeks of L. reuteri or control treatment. The protocol of the L. johnsonii preparation and administration matched the L. reuteri protocol. Fecal samples for sequencing and tissue used in the immunofluorescence studies were collected at the end of the treatment.
# Mice were deeply anesthetized by inhalation of isoflurane and perfused transcardially with 10 ml 0.9% phosphate-buffered saline followed by 30 ml 4% paraformaldehyde in 0.1M phosphate buffer (PFA). […] Fluorescence intensity was measured in ImageJ (NIH) by selecting regions of interest (Oxytocin- and NeuN-positive hypothalamic cell bodies). Hypothalamic oxytocin-expressing neuronal population and NeuN+ cell number was assessed in ImageJ using the following operational sequence: (1) open image file, (2) subtract background, (3) adjust threshold, (4) convert to mask, (5) watershed, (6) analyze particles. […]
substance,measurement,setting,value
Lactobacillus reuteri MM4-1A (ATCC-PTA-6475) [L. reuteri],oxytocin immunofluorescence intensity in the PVN,relative to heat-killed L. reuteri,significantly increased
same,oxytocin-positive cell number in the PVN,,higher than in control-treated MHFD offspring
same,oxytocin-positive cell number in the PVN,listed as live L. reuteri,significantly increased
